Laboratory results taken from the supplement of paper PMC10883282.

Experiments:
Experiment in all cases: relative viability vs DMSO control (72 h) (fraction); higher = more viable cells
SW872 = system: SW872
Outline: (§1)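 ATPLite readings, expressed as percent growth and averaged over up to triplicate wells, provided relative viability. Before reading, sarcoma cell lines seeded in 384-well plates to reach 80–90% confluence received 2.5 µl of serially diluted compound after 24 h, from source plates of 10 mM to 0.0002 mM. Plates were held 72 h at 37 °C, 5% CO2, with 0.1% DMSO as vehicle and a 5 µM positive control. The data were rescaled to 1 for full and 0 for none.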

SW684 = system: SW684
Outline: as §1

HT1080 = system: HT1080
Outline: as §1

A204 = system: A204
Outline: as §1

SK-LMS-1 = system: SK-LMS-1
Outline: as §1

RD-ES = system: RD-ES
Outline: as §1

SK-ES-1 = system: SK-ES-1
Outline: as §1

SW982 = system: SW982
Outline: as §1

VA-ES-BJ = system: VA-ES-BJ
Outline: as §1

G401 = system: G401
Outline: as §1

HS729 = system: HS729
Outline: as §1

KHOS-NP = system: KHOS-NP
Outline: as §1

CC(C)Oc1ccc(-c2nn([C@@H](C)c3oc4ccc(F)cc4c(=O)c3-c3cccc(F)c3)c3ncnc(N)c23)cc1F [Umbralisib]
Conditions	relative viability
A204, 0.00017 µM	1.08
A204, 0.00051 µM	1.11
A204, 0.00152 µM	1.12
A204, 0.00457 µM	1.12
A204, 0.01372 µM	1.08
A204, 0.04115 µM	1.09
A204, 0.1235 µM	1.08
A204, 0.3704 µM	1.07
A204, 1.111 µM	0.986
A204, 3.333 µM	1.02
A204, 10 µM	0.9
G401, 0.00017 µM	1.02
G401, 0.00051 µM	1.068
G401, 0.00152 µM	1.09
G401, 0.00457 µM	1.05
G401, 0.01372 µM	1.03
G401, 0.04115 µM	1.01
G401, 0.1235 µM	1.02
G401, 0.3704 µM	0.99
G401, 1.111 µM	0.988
G401, 3.333 µM	1.05
G401, 10 µM	1.1
HS729, 0.00017 µM	1.09
HS729, 0.00051 µM	1.09
HS729, 0.00152 µM	1.05
HS729, 0.00457 µM	1.04
HS729, 0.01372 µM	1.05
HS729, 0.04115 µM	0.991
HS729, 0.1235 µM	1.04
HS729, 0.3704 µM	1.01
HS729, 1.111 µM	0.942
HS729, 3.333 µM	0.936
HS729, 10 µM	0.895
HT1080, 0.00017 µM	1.07
HT1080, 0.00051 µM	1.09
HT1080, 0.00152 µM	1.07
HT1080, 0.00457 µM	1.09
HT1080, 0.01372 µM	1.06
HT1080, 0.04115 µM	1.069
HT1080, 0.1235 µM	1.08
HT1080, 0.3704 µM	1.07
HT1080, 1.111 µM	1.05
HT1080, 3.333 µM	1.05
HT1080, 10 µM	0.955
KHOS-NP, 0.00017 µM	1.091
KHOS-NP, 0.00051 µM	1.085
KHOS-NP, 0.00152 µM	1.095
KHOS-NP, 0.00457 µM	1.1
KHOS-NP, 0.01372 µM	1.1
KHOS-NP, 0.04115 µM	1.09
KHOS-NP, 0.1235 µM	1.11
KHOS-NP, 0.3704 µM	1.08
KHOS-NP, 1.111 µM	1.1
KHOS-NP, 3.333 µM	1.1
KHOS-NP, 10 µM	1.077
RD-ES, 0.00017 µM	1
RD-ES, 0.00051 µM	1
RD-ES, 0.00152 µM	1.01
RD-ES, 0.00457 µM	1.001
RD-ES, 0.01372 µM	0.979
RD-ES, 0.04115 µM	1
RD-ES, 0.1235 µM	1.02
RD-ES, 0.3704 µM	1
RD-ES, 1.111 µM	0.994
RD-ES, 3.333 µM	1.01
RD-ES, 10 µM	1.02
SK-ES-1, 0.00017 µM	1.07
SK-ES-1, 0.00051 µM	1.07
SK-ES-1, 0.00152 µM	1.05
SK-ES-1, 0.00457 µM	1.07
SK-ES-1, 0.01372 µM	1.06
SK-ES-1, 0.04115 µM	1.09
SK-ES-1, 0.1235 µM	1.04
SK-ES-1, 0.3704 µM	1.04
SK-ES-1, 1.111 µM	1.04
SK-ES-1, 3.333 µM	1.08
SK-ES-1, 10 µM	1.02
SK-LMS-1, 0.00017 µM	1.07
SK-LMS-1, 0.00051 µM	1.06
SK-LMS-1, 0.00152 µM	1.06
SK-LMS-1, 0.00457 µM	1.04
SK-LMS-1, 0.01372 µM	1.05
SK-LMS-1, 0.04115 µM	1.05
SK-LMS-1, 0.1235 µM	1.03
SK-LMS-1, 0.3704 µM	1.06
SK-LMS-1, 1.111 µM	1.02
SK-LMS-1, 3.333 µM	0.875
SK-LMS-1, 10 µM	0.752
SW684, 0.00017 µM	1.13
SW684, 0.00051 µM	1.17
SW684, 0.00152 µM	1.16
SW684, 0.00457 µM	1.21
SW684, 0.01372 µM	1.2
SW684, 0.04115 µM	1.19
SW684, 0.1235 µM	1.16
SW684, 0.3704 µM	1.06
SW684, 1.111 µM	0.966
SW684, 3.333 µM	0.9274
SW684, 10 µM	0.882
SW872, 0.00017 µM	1.09
SW872, 0.00051 µM	1.09
SW872, 0.00152 µM	1.1
SW872, 0.00457 µM	1.08
SW872, 0.01372 µM	1.11
SW872, 0.04115 µM	1.087
SW872, 0.1235 µM	1.07
SW872, 0.3704 µM	1.07
SW872, 1.111 µM	1.09
SW872, 3.333 µM	1.095
SW872, 10 µM	1.04
SW982, 0.00017 µM	1.03
SW982, 0.00051 µM	1.078
SW982, 0.00152 µM	1.07
SW982, 0.00457 µM	1.06
SW982, 0.01372 µM	1.05
SW982, 0.04115 µM	1.067
SW982, 0.1235 µM	1.07
SW982, 0.3704 µM	1.079
SW982, 1.111 µM	1.063
SW982, 3.333 µM	1.08
SW982, 10 µM	1.12
VA-ES-BJ, 0.00017 µM	1.07
VA-ES-BJ, 0.00051 µM	1.07
VA-ES-BJ, 0.00152 µM	1.11
VA-ES-BJ, 0.00457 µM	1.08
VA-ES-BJ, 0.01372 µM	1.08
VA-ES-BJ, 0.04115 µM	1.05
VA-ES-BJ, 0.1235 µM	1.07
VA-ES-BJ, 0.3704 µM	1.05
VA-ES-BJ, 1.111 µM	1.05
VA-ES-BJ, 3.333 µM	1.05
VA-ES-BJ, 10 µM	1.1
